SMILES strings stand for the structures.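 All cell lines were grown in 96-well plates and treated with compound for 48 hours. GI50: concentration for 50% inhibition of growth. At the TGI there is no net growth.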

What all share (assay): growth of human tumour cells (NCI), 48 h
In assay [1] the test system is HOP-62 NSCLC.
Assay [2] concerns U251 CNS.
In assay [3] the test system is NCI-H23 lung.
The subject of assay [4] is CCRF-CEM leukemia.
Assay [5] relates to NCI-H522 lung.
Assay [6] concerns RPMI-8226 leukemia.
Assay [7] has as its system K-562 leukemia.
Assay [8] has as its system UACC-257 melanoma.
For assay [9], the system named is SK-OV-3 ovarian.
Assay [10] relates to HL-60(TB) leukemia.

As to `CC(=O)[C@@]1(O)CC[C@H]2[C@@H]3C[C@H](C)C4=CC(=O)CC[C@]4(C)[C@H]3[C@@H](O)C[C@@]21C`, the TGI in assay [1], in assay [2], in assay [3], in assay [4], in [5] and in [6] was > 100 µM throughout. Further, the TGI in assay [7], in [8], in [9] and in [10] was > 100 µM each time.
On to `N/C(=C\c1ccc(OCc2ccccc2)c(OCc2ccccc2)c1[N+](=O)[O-])C(=O)O`, for which the TGI in [1], in assay [2], in assay [3], in assay [4], in assay [5] and in [6] was > 100 µM in each case. The TGI in assay [7], in [8], in [9] and in assay [10] was > 100 µM throughout.
On to `COC(=O)c1c2c(c(C)[n+]([O-])c1C)C(=O)C=C(NCc1ccc(F)c(Cl)c1)C2=O`, for which the GI50 in assay [1] is 0.718 µM; in assay [2] it was 0.291 µM; in assay [3], 0.412 µM; in assay [4] it was 475 nM; in [5], 0.266 µM; in assay [6], 839 nM. Further, the GI50 in [7] was 31.5 nM; in assay [8] it was 0.171 µM; in [9], 1.51 µM; in assay [10], 0.27 µM. Also, the TGI in assay [1] turned out to be 2.33 µM; in assay [2], 1.44 µM; in [3] it was 2.11 µM; in assay [4], 4.71 µM; in [5], 1.7 µM; in assay [6], 3.93 µM. The TGI in [7] is 5.27 µM; in assay [8] it was 0.64 µM; in assay [9], 3.38 µM; in assay [10] it was 0.895 µM.
Regarding `COc1cc2cc(Oc3ccc(NC(=O)Nc4cccc(C(F)(F)F)c4)cc3)c(C)nc2cc1OC`, the GI50 was 2.33 µM in assay [1]; 1.56 µM in [2]; 1.7 µM in assay [3]; 1.32 µM in [5]; 1050 nM in [6]; 1730 nM in assay [7]. For the same molecule, the GI50 is 1.09 µM in assay [8], 2.06 µM in [9] and 1.56 µM in assay [10]. In addition, the TGI in assay [1] was found to be 8.44 µM; in assay [2] it was 5.61 µM; in [3] it was 7.41 µM; in assay [5] it was 4.49 µM; in [6], 2.96 µM; in assay [7] it was 14 µM. The values for the TGI in assay [8], in assay [9] and in [10] were 3.66 µM, 10.6 µM and 3.91 µM, respectively.
As for `COc1c(OC)c(OC)c2c(c1OC)c(=O)c1ccccc1n2C`, the TGI in [1], in assay [2], in assay [3], in assay [5], in assay [6] and in assay [7] was > 100 µM throughout. Further, the TGI in [8], in [9] and in assay [10] was > 100 µM each time.
Take `O=C(Nc1cc(Cl)cc(Cl)c1)c1ccc(NC2=C(Cl)C(=O)N(Cc3ccc(Cl)cc3Cl)C2=O)cc1`: the GI50 in [1] is 34.1 µM; in assay [2] it was 16.8 µM; in assay [3] it was 3.71 µM; in assay [4] it was 220 nM; in assay [5], 15.7 µM; in assay [6], 2530 nM. The GI50 in assay [7] is 1330 nM; in assay [8], 24.8 µM; in assay [9], 55.3 µM. Besides, the TGI in assay [1] was > 100 µM; in assay [2], 51.6 µM; in assay [3], 19.2 µM; in assay [4] it was 0.819 µM; in assay [5] it was 34.3 µM; in assay [6], 10.9 µM. The TGI is 10.7 µM in [7], 53.1 µM in [8] and > 100 µM in assay [9].
Regarding `O=C1C(Cl)=C(Nc2cccc(Cl)c2)C(=O)N1Cc1ccccc1Cl`, the GI50 in assay [1] is 15.8 µM; in [2], 2.95 µM; in assay [4] it was 457 nM; in assay [5], 2.87 µM; in assay [6] it was 1820 nM; in assay [7], 1870 nM. For the same molecule, the GI50 in [8] is 12.8 µM; in [10] it was 3.15 µM. Moreover, the TGI is 37.9 µM in [1]; 11.3 µM in assay [2]; > 100 µM in assay [4]; 23.3 µM in assay [5]; 26 µM in [6]; 8.91 µM in assay [7]. The TGI in assay [8] stood at 30.9 µM; in assay [10] it was 19.6 µM.
`Cc1ccccc1N=Nc1ccc(NC(=O)c2ccnn2C)c(C)c1`: the GI50 in assay [1] was 29.4 µM; in assay [2], 24 µM; in assay [3], 18.7 µM; in assay [4], 43300 nM; in [5], 30 µM; in assay [6], 3410 nM. For the same molecule, the GI50 in [8] was 49 µM; in assay [9], 24 µM. Also, the TGI in assay [1], in assay [2], in assay [3], in assay [4], in assay [5] and in [6] was > 100 µM each time. The TGI in assay [8] and in assay [9] was > 100 µM in each case.
With `O=C(CC1(O)C(=O)Nc2c(Cl)ccc(Cl)c21)c1ccc2ccccc2c1` (stereo unspecified), the TGI in assay [1] is 99.2 µM; in assay [2], 61.3 µM; in assay [3] it was 27 µM; in [4], > 100 µM; in [5] it was 9.24 µM; in assay [6], 31 µM. In addition, the TGI in assay [8] is 25.3 µM; in [9] it was 33.5 µM; in [10], 4.04 µM.
With `O=C1NC(=O)C2C(=O)NC(=O)C1C2(c1ccccc1)c1cc[nH]c1` (stereo unspecified), the TGI in assay [1], in [3], in assay [4], in assay [5], in assay [6] and in [7] was > 100 µM each time. Further, the TGI in [8], in assay [9] and in [10] was > 100 µM throughout.
For the molecule `O=NNc1ccc(S(=O)(=O)c2ccccc2)cn1`, the TGI in [1], in assay [2], in assay [3], in [4], in assay [5] and in assay [7] was > 100 µM in each case. Also, the TGI in [8] and in assay [9] was > 100 µM throughout.
As to `Cc1ccc(-n2c3c(c4c(CN(C)C)c(O)ccc42)CCc2ccccc2C3=O)cc1`, the GI50 in assay [1] is 17.8 µM; in [2], 15.6 µM; in assay [3] it was 14.6 µM; in assay [5] it was 14.9 µM; in [6], 11000 nM; in [7], 10200 nM. Also, the GI50 is 17.7 µM in assay [8], > 100 µM in assay [9] and 9.49 µM in [10]. The TGI in assay [1] was found to be 40.9 µM; in [2], 30.5 µM; in assay [3], 29.6 µM; in [5] it was 32.7 µM; in [6] it was 30.5 µM; in assay [7] it was 25.9 µM. Besides, the TGI in assay [8] was 34 µM; in [9] it was > 100 µM; in [10] it was 24.5 µM.
Consider `O=C(Nc1cccc(Cl)c1)c1ccc(NC2=C(Cl)C(=O)N(Cc3ccccc3)C2=O)cc1`, for which the GI50 in [1] was 18.2 µM; in [2] it was 15.5 µM; in assay [3], 13.6 µM; in assay [4], 436 nM; in [5] it was 5.6 µM; in assay [7] it was 2580 nM. Moreover, the GI50 was 21.3 µM in assay [8], 43.6 µM in [9] and 3.79 µM in assay [10]. In addition, the TGI in assay [1] was 33 µM; in assay [2] it was > 48.1 µM; in assay [3], 27 µM; in [4] it was 1.44 µM; in [5], > 44.6 µM; in [7], 8.69 µM. The TGI was 49.7 µM in assay [8], > 95.5 µM in [9] and 15.2 µM in assay [10].
Take `CCCCCC/C=C1\CCC(CN2CCCC2)C1=O` (stereo unspecified): the TGI in [1] turned out to be 34.2 µM; in [2], 30 µM; in [3] it was 33.8 µM; in assay [4] it was 20.9 µM; in assay [5], 3.29 µM; in assay [6] it was 5.56 µM. Moreover, the TGI in assay [7] worked out at 12.6 µM; in assay [8] it was 32.7 µM; in assay [9], 33 µM.
Regarding `O=c1ccn(C2OC(CO/N=C/c3ccc(O)c(O)c3O)C(O)C2O)c(=O)[nH]1` (stereo unspecified), the GI50 was 67.6 µM in assay [1]; 16.8 µM in [2]; 22.6 µM in assay [3]; 50.6 µM in [5]; 49500 nM in assay [6]; 21700 nM in [7]. Besides, the GI50 in assay [8] is 33.5 µM; in [9] it was 27.2 µM; in assay [10], 26.9 µM. The TGI was > 100 µM in [1]; 30.4 µM in [2]; 49.6 µM in assay [3]; > 100 µM in assay [5]; > 100 µM in [6]; 78.5 µM in assay [7]. For the same molecule, the figures for the TGI in assay [8], in assay [9] and in assay [10] were > 100 µM, 89 µM and 68.1 µM, respectively.

Values taken from PubChem BioAssay (NCI).
